Active and inactive are the calls of the source.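 The calls were made as follows: active = compounds whose fitted half-maximal concentration in the cell-protection dose series is at or below a set limit; inactive = the rest.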
These compounds were tested on H9c2 cardiomyocytes, 2-deoxyglucose stress, ATP luminescence, 2 h (assay: H9c2 cell survival under 2-deoxyglucose stress – uHTS hits, dose response (AID 588780)).
For `O=C(COC(=O)c1c2c(nc3ccccc13)/C(=C/c1cccc([N+](=O)[O-])c1)CCC2)NC1CCS(=O)(=O)C1` (centres undefined), the IC50 was 13.4 µM.
In the case of `COc1cc(OC)cc(-c2cc3nc(C)c(CCC(=O)Nc4nc(C)cs4)c(C)n3n2)c1`, the IC50 is reported as > 79 µM (inactive).
With `Cc1sc2nc(CSCC(=O)N(C)c3ccccc3)[nH]c(=O)c2c1C` the IC50 was 29.8 µM.
In the case of `CCOC(=O)c1ccc(-c2ccc(/C=C(\C#N)C(=O)NCC3CCCO3)o2)cc1` (centres undefined), the IC50 is reported as > 79 µM (inactive).
For `NC(=O)COc1ccc2oc(=O)cc(-c3cc4ccccc4o3)c2c1`, the IC50 was > 79 µM (inactive).
Work on `CCC(=O)N1CCN(c2ccccc2NC(=O)COc2cc(C)ccc2C(C)C)CC1` yielded an IC50 of 11.5 µM.
`CC(C)c1ccc(S(=O)(=O)N2CCN(CC(=O)c3ccc(O)c(O)c3)CC2)cc1` was tested, and the IC50 was 21.3 µM.
`Cc1ccc(CNC(=O)CCc2nc3ccccc3c(=O)[nH]2)cc1` was tested, and the IC50 was 13.9 µM.
`O=c1cc(CSc2ccc([N+](=O)[O-])cc2)nc2sccn12` was tested, and the IC50 was > 79 µM (inactive).
`COc1ccc2c(c1)C(=O)[C@@H](O)[C@H](c1ccc(OC)c(Br)c1)O2` gave an IC50 of 5.76 µM.
With `c1ccc(-c2cc(-c3nnc4sc(-c5ccccn5)nn34)[nH]n2)cc1` the IC50 was > 79 µM (inactive).
With `CCOc1cc(NC(=O)C2CC2)c(OCC)cc1NC(=O)c1ccccn1` the IC50 was > 79 µM (inactive).
Work on `O=C(C[C@@H]1C/C=C/CC[C@@H](Cc2ccc(F)cc2)C(=O)O[C@@H](c2ccccc2)CNC1=O)NCCO` yielded an IC50 of 15.1 µM.
`CCOC(=O)[C@H]1[C@H]2COc3ccc(Br)cc3[C@@H]2N2C(=O)c3cc(OC)c(OC)cc3NC(=O)[C@@]12C` was tested, and the IC50 was 40 µM (inactive).
With `COc1cccc(/C=N/Nc2ncnc3scc(-c4ccccc4)c23)c1OC` the IC50 was > 79 µM (inactive).
For `Cc1ccc(C)c(C(=O)Nc2cc(C)nn2-c2nc(C)cc(C)n2)c1`, the IC50 was > 79 µM (inactive).
With `Clc1nc2sccn2c1/C=N/n1cnc2ccccc21` the IC50 was > 79 µM (inactive).
For `CCOC(=O)c1cccc(C2=C(CNC(=O)c3cccnc3)[C@H]3CC[C@@H](C2)N3Cc2ccccc2)c1`, the IC50 was > 79 µM (inactive).
`CCOc1ccc2ccccc2c1C(=O)N[C@@H]1C(=O)N2[C@@H]1SC(C)(C)[C@@H]2C(=O)O` was tested, and the IC50 was 47.1 µM (inactive).
With `COc1cc(-c2cc(NC=O)c3ncc(-c4ccc(C(C)=O)cc4)n3c2)cc(OC)c1OC` the IC50 was > 79 µM (inactive).
Compound `COc1cc(-c2cc(C(=O)NCc3ccco3)c3ccccc3n2)cc(OC)c1OC` has an IC50 of 16.6 µM.
With `N#C/C(=C1\CCCN1)c1nc2ccccc2c(=O)[nH]1` the IC50 was > 79 µM (inactive).
`Cc1ccc(NC(=O)c2cc(-c3cccs3)nc3ccccc23)nc1` gave an IC50 of 9.88 µM.
In the case of `O=C(c1ccc(-c2nc3ccccc3s2)o1)N1CCN(c2ccccc2O)CC1`, the IC50 is reported as 12.3 µM.
Work on `COc1ccc(N(C(=O)c2cccc([N+](=O)[O-])c2)S(=O)(=O)c2cccs2)cc1` yielded an IC50 of 13.4 µM.
`CNC(=O)c1cccc(NC(=O)c2cc(-c3ccccc3)nc3c2cnn3C(C)C)c1` was tested, and the IC50 was > 79 µM (inactive).
For `COc1cc(NC(=O)c2cc([N+](=O)[O-])ccc2NC(=O)CN2CCN(c3ccccn3)CC2)cc(OC)c1`, the IC50 was > 79 µM (inactive).
In the case of `CC(=O)Nc1cccc(NC(=O)c2cc(-c3cccnc3)nc3ccc(Br)cc23)c1`, the IC50 is reported as > 79 µM (inactive).
In the case of `CC(OC(=O)Cn1[nH]c(=O)c2ccccc2c1=O)C(=O)Nc1cccc(Cl)c1` (centres undefined), the IC50 is reported as > 79 µM (inactive).
In the case of `CC(=O)c1ccc(-c2cnc3c(NC=O)cc(-c4ccc(C(=O)NC5CC5)cc4)cn23)cc1`, the IC50 is reported as > 79 µM (inactive).
For `C=C1C(C)C2C(Cc3ccccc3)NC(=O)C23OC(=O)/C=C/C(O)CCCC(C)C/C=C/C3C1O` (centres undefined), the IC50 was > 79 µM (inactive).
With `CCOC(=O)C1CCN(c2cc3c(cc2NC(=O)c2ccccc2Cl)n(C)c(=O)n3C)CC1` the IC50 was 11.7 µM.
For `COc1cccc(/C=N/NC(=O)c2[nH]c(C)c(C(=O)N/N=C/c3cccc(OC)c3)c2C)c1`, the IC50 was 11.9 µM.
`CCCOc1ccc2[nH]c(C(=O)N/N=C/c3cc(OC)c(OC)c(OC)c3)cc2c1` was tested, and the IC50 was 9.02 µM.
For `CC(=NCCCn1ccnc1)c1c(-c2ccccc2)[nH]n(-c2nc3ccccc3s2)c1=O`, the IC50 was > 79 µM (inactive).
In the case of `COc1ccc2[nH]c(=O)c(CN(Cc3ccco3)Cc3nnnn3Cc3ccccc3)cc2c1`, the IC50 is reported as > 79 µM (inactive).
In the case of `O=C(CC1CC2CCC1C2)Nc1nc(-c2ccccn2)cs1` (centres undefined), the IC50 is reported as > 79 µM (inactive).
`Cc1ccc(NC(=O)c2nc[nH]c2C(=O)NCCCNC(=O)c2[nH]cnc2C(=O)Nc2ccc(C)cc2)cc1` gave an IC50 of 21.5 µM.
In the case of `CC(=O)c1ccccc1OCC(O)CN1CCN(CCN2C(=O)c3cccc4cccc(c34)C2=O)CC1` (centres undefined), the IC50 is reported as > 79 µM (inactive).
`COc1ccc(N=Cc2cc(Cl)ccc2O)cc1Cl` was tested, and the IC50 was > 79 µM (inactive).
In the case of `Cn1ncc(Cl)c1C(=O)N/N=C/c1ccccn1`, the IC50 is reported as > 79 µM (inactive).
In the case of `Cc1cc(C)c(C)c(S(=O)(=O)N2CCN(C(=O)c3cc(=O)[nH]c4ccccc34)CC2)c1C`, the IC50 is reported as > 79 µM (inactive).
`Cc1cc(C(=O)N/N=C/c2c(CO)cnc(C)c2O)c2ccccc2n1` was tested, and the IC50 was > 79 µM (inactive).
`COc1ccccc1NS(=O)(=O)c1ccc2oc(SCC(=O)N3CCNC3=O)nc2c1` was tested, and the IC50 was 36.5 µM (inactive).
With `Cc1ccc(Nc2nc(N)[nH]c(=O)c2N=O)cc1` the IC50 was > 79 µM (inactive).
`CC(=O)Nc1cc(-c2ccccc2)cn2c(-c3cccc(C(C)=O)c3)cnc12` showed an IC50 of 17.8 µM.
`O=C(COc1ccccc1[N+](=O)[O-])Nc1ccc(N2CCN(C(=O)c3cccs3)CC2)cc1` showed an IC50 of 8.51 µM.
In the case of `CCOC(=O)CSc1nnc(CSc2nc3sc4c(c3c(=O)[nH]2)CCC4)n1C`, the IC50 is reported as > 79 µM (inactive).
Compound `COc1cccc(Nc2nc3ccccc3n3nnnc23)c1` has an IC50 of 14.6 µM.
In the case of `CC(C)COc1nc2ccccc2c(=O)n1OCC(=O)O`, the IC50 is reported as > 79 µM (inactive).
For `Cc1onc(-c2ccccc2)c1C(=O)NC(=S)NNC(=O)c1ccccc1O`, the IC50 was 37.2 µM (inactive).
For `O=c1[nH]c(NCc2ccccc2)nc2c1CCCC2`, the IC50 was > 79 µM (inactive).
`COc1cc(-c2nnc(-c3ccc(N4CCOCC4)cc3)o2)cc(OC)c1OC` was tested, and the IC50 was > 79 µM (inactive).
With `C[C@@H](NC(=O)c1nc[nH]c1C(=O)NCC(=O)OCc1ccccc1)c1ccccc1` the IC50 was > 79 µM (inactive).
`CC1Cc2ccccc2N1C(=O)c1cc2c(=O)n3ccccc3nc2n1C` (centres undefined) was tested, and the IC50 was > 79 µM (inactive).
With `O=C(CCc1nc2ccccc2c(=O)[nH]1)Nc1ccc(N2CCCCC2)cc1` the IC50 was 19.8 µM.
`CS(=O)(=O)N(Cc1ccc(C(=O)NCCSc2ccccn2)cc1)c1ccccc1` was tested, and the IC50 was > 79 µM (inactive).
For `CC(=O)c1ccccc1OCCCN1CCCCC1`, the IC50 was > 79 µM (inactive).
`CN(C)CCCNc1ccc(-c2n[nH]c(=O)c3ccccc23)cc1[N+](=O)[O-]` was tested, and the IC50 was > 79 µM (inactive).
For `COCCCn1c(C)nc2c(c1=O)c1nc3ccccc3nc1n2CCc1ccccc1`, the IC50 was > 79 µM (inactive).
For `O=C/C(=C\Nc1ccccn1)c1nc2cc(Cl)ccc2o1`, the IC50 was > 79 µM (inactive).
For `NC(=O)c1cccc(-c2coc3c(C(=O)NCCc4ccccc4)cccc23)c1`, the IC50 was > 79 µM (inactive).
For `COc1ccccc1OCC(=O)Nc1sc2c(c1C(=O)NCC1CCCO1)CCC2` (centres undefined), the IC50 was > 79 µM (inactive).
`Cc1ccc(OCC(=O)N/N=C/c2cccc3cccnc23)cc1` was tested, and the IC50 was 35.8 µM (inactive).
For `CCN(CC)S(=O)(=O)c1ccc(N2CCOCC2)c(NC(=O)c2cc(-c3ccccn3)nc3ccccc23)c1`, the IC50 was > 79 µM (inactive).
`O=C1C=C(N2CCOCC2)c2cccc3cccc1c23` was tested, and the IC50 was > 79 µM (inactive).
For `Cc1cccc(N=Cc2cc(Br)cc(Cl)c2O)c1`, the IC50 was 39.6 µM (inactive).
For `Cc1ccccc1N=Cc1cc2c(cc1[N+](=O)[O-])OCO2`, the IC50 was > 79 µM (inactive).
For `COc1ccc(COc2cc(-c3cccc(OC)c3)nc3ccc(NC(=O)c4cccnc4)cc23)cc1`, the IC50 was > 79 µM (inactive).
With `CCCCn1c(=NC(=O)c2cccnc2)c(C#N)cc2c(=O)n3cccc(C)c3nc21` the IC50 was 33.6 µM (inactive).
`O=C(CCc1nc2ccccc2c(=O)[nH]1)NCc1ccco1` was tested, and the IC50 was > 79 µM (inactive).
With `CCC(=O)Nc1cccc(-c2nnc(-c3cccc(NC(=O)CC)c3)o2)c1` the IC50 was > 79 µM (inactive).
With `COc1ccc(N(CC(=O)Nc2cccc(C(C)=O)c2)S(=O)(=O)c2ccc(NC(C)=O)cc2)cc1` the IC50 was 10.7 µM.
In the case of `COc1ccc(-c2cc(=O)oc3c(C)c(O)c(CN(C)C)cc23)cc1`, the IC50 is reported as > 79 µM (inactive).
For `O=c1[nH]n(CC2COC3(CCCCC3)O2)c(=O)c2ccccc12` (centres undefined), the IC50 was > 79 µM (inactive).
With `Cc1ccc2[nH]c(=O)c(CN(CCCN3CCOCC3)C(=O)Nc3ccc(Cl)cc3)cc2c1` the IC50 was > 79 µM (inactive).
`Cc1csc2nc(COC(=O)c3ccc(Cl)c([N+](=O)[O-])c3)cc(=O)n12` was tested, and the IC50 was > 79 µM (inactive).
With `N#CCCN(C(=O)COC(=O)CCc1nc2ccccc2c(=O)[nH]1)c1ccc(F)cc1` the IC50 was > 79 µM (inactive).
For `COC(=O)c1c(C)[nH]c(C(=O)COc2ccc3ccc(=O)oc3c2)c1C`, the IC50 was > 79 µM (inactive).
In the case of `O=C(Nc1ccccc1)c1nc[nH]c1C(=O)NCCCCNC(=O)c1[nH]cnc1C(=O)Nc1ccccc1`, the IC50 is reported as > 79 µM (inactive).
In the case of `Cc1cc(C)cc(C(=O)Nc2ccc(NC(=O)c3cccs3)cc2)c1`, the IC50 is reported as > 79 µM (inactive).
In the case of `Cc1ccccc1N(C(=O)c1snc(C(N)=O)c1N)C(C(=O)NCc1ccccc1)c1ccc(O)cc1` (centres undefined), the IC50 is reported as 17.8 µM.
In the case of `CCOC(=O)CSc1nnc(CSc2nc3ccccc3c(=O)[nH]2)n1-c1ccccc1`, the IC50 is reported as > 79 µM (inactive).
For `O=C(Nc1nc(-c2ccccn2)cs1)c1cccc(S(=O)(=O)N2CCOCC2)c1`, the IC50 was 41.5 µM (inactive).
With `CCn1c(SCC(=O)N2CCN(c3ccccc3)CC2)nc2c(c1=O)SC(C)C2` (centres undefined) the IC50 was > 79 µM (inactive).
Compound `COc1ccccc1CN(C)C(=O)c1cc(-c2cc(OC)c(OC)c(OC)c2)nc2ccccc12` has an IC50 of 6.57 µM.
With `CCOC(=O)c1c2c3c(cccc3n(C)c1=O)C(=O)c1ccccc1-2` the IC50 was > 79 µM (inactive).
For `CCOC(=O)C1=C(COC(=O)c2cc(OC)c(OC)c(OC)c2)NC(=O)NC1C` (centres undefined), the IC50 was 50 µM (inactive).
In the case of `COc1cccc(-c2ccc(SCC(=O)N3CCN(c4ccccc4)CC3)nn2)c1`, the IC50 is reported as > 79 µM (inactive).
In the case of `O=C(CSc1nc2ccccc2c(=O)[nH]1)N1CCCCC1`, the IC50 is reported as > 79 µM (inactive).
`CCC(=O)Oc1ccc2c(C)cc(=O)oc2c1C` was tested, and the IC50 was > 79 µM (inactive).
In the case of `Nc1cc2[nH]c(=O)c3ccccc3c2cc1[N+](=O)[O-]`, the IC50 is reported as 15.1 µM.
For `CCCCNC(=O)c1cn(-c2ccc(OCC)cc2)c(=O)c2cc(OC)c(OC)cc12`, the IC50 was 41.7 µM (inactive).
`Cn1c(=O)c2[nH]c(NN=Cc3ccc(Br)cc3)nc2n(C)c1=O` was tested, and the IC50 was > 79 µM (inactive).

From PubChem BioAssay AID588780 (Sanford-Burnham Center for Chemical Genomics, 2011)
